Calls of active or inactive are those of the source. The calls are words filed in the database; no cut-off is given here.
Tests used:
[1] = target: T1, Peroxisome proliferator-activated receptor alpha (Homo sapiens) (UniProt Q07869); assay: Agonist activity at N-terminal Gal4 fused human PPARalpha LBD transfected in HEK293 cells after 24 hrs by luciferase reporter gene assay relative to GW7647; format: cell-based
T1 sequence (whole entry): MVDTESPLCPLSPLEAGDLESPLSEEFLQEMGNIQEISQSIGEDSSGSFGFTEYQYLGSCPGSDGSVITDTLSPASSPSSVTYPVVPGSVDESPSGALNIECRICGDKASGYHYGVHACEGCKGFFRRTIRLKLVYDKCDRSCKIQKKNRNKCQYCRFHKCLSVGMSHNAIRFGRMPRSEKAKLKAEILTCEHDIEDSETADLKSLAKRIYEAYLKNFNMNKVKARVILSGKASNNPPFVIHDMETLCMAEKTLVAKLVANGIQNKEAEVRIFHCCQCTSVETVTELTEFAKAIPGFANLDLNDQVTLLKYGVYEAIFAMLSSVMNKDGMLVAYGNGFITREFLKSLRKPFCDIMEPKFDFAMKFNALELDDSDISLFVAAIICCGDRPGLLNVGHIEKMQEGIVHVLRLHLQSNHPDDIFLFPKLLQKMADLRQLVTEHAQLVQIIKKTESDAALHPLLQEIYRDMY

[2] = target: T2, Peroxisome proliferator-activated receptor gamma (Homo sapiens) (UniProt P37231); assay: Agonist activity at N-terminal Gal4 fused human PPARgamma LBD transfected in HEK293 cells at < 10 uM after 24 hrs by luciferase reporter gene assay; format: cell-based
T2 sequence (whole entry): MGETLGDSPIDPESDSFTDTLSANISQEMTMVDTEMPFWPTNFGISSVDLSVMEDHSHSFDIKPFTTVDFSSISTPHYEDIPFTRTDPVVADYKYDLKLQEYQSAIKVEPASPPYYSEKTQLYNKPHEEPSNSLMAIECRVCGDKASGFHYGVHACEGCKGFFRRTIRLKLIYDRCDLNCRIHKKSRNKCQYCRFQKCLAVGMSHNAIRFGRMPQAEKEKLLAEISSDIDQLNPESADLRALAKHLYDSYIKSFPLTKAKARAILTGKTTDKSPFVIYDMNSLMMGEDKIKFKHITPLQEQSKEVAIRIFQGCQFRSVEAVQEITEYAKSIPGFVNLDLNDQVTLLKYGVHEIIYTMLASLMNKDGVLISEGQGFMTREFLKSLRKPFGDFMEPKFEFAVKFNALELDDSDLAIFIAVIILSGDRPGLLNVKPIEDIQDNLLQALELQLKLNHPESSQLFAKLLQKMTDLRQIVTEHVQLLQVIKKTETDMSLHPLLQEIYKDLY

[3] = target: T3, Peroxisome proliferator-activated receptor alpha (Homo sapiens, UniProt Q07869); assay: Agonist activity at N-terminal Gal4 fused human PPARalpha LBD transfected in HEK293 cells after 24 hrs by luciferase reporter gene assay; format: cell-based
T3 sequence (Q07869 whole entry): T1 sequence (whole entry)

[4] = target: T4, Retinoic acid receptor RXR-alpha (Homo sapiens) (UniProt P19793); assay: Agonist activity at RXRalpha (unknown origin) at < 20 uM
T4 sequence (whole entry): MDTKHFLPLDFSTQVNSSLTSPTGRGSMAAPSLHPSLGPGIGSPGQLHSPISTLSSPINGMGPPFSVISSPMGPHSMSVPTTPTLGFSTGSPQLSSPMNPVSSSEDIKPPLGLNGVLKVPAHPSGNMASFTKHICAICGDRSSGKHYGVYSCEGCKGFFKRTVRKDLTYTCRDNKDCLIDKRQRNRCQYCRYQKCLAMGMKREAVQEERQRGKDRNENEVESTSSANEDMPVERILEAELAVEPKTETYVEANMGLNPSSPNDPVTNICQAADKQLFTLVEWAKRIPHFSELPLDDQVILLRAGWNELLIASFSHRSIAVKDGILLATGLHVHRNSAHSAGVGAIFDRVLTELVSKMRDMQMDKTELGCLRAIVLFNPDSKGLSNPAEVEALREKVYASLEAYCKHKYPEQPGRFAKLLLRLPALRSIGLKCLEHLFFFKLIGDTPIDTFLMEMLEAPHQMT

[5] = target: T5, Peroxisome proliferator-activated receptor delta (Homo sapiens) (UniProt Q03181); assay: Agonist activity at N-terminal Gal4 fused human PPARdelta LBD transfected in HEK293 cells after 24 hrs by luciferase reporter gene assay relative to GW501516; format: cell-based
T5 sequence (whole entry): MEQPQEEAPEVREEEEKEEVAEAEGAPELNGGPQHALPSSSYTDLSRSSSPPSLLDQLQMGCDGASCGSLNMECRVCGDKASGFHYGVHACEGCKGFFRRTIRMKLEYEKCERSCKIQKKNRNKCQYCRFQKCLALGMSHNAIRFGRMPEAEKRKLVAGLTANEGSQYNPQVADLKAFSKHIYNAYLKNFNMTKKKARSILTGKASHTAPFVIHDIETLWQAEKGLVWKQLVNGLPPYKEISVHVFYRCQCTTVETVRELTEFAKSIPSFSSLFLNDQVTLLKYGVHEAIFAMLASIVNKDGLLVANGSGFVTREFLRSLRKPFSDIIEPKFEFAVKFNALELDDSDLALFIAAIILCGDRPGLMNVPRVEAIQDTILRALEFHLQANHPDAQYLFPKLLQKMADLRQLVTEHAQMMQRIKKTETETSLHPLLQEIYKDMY

[6] = target: T6, Retinoic acid receptor RXR-gamma (Homo sapiens) (UniProt P48443); assay: Agonist activity at RXRgamma (unknown origin) at < 20 uM
T6 sequence (whole entry): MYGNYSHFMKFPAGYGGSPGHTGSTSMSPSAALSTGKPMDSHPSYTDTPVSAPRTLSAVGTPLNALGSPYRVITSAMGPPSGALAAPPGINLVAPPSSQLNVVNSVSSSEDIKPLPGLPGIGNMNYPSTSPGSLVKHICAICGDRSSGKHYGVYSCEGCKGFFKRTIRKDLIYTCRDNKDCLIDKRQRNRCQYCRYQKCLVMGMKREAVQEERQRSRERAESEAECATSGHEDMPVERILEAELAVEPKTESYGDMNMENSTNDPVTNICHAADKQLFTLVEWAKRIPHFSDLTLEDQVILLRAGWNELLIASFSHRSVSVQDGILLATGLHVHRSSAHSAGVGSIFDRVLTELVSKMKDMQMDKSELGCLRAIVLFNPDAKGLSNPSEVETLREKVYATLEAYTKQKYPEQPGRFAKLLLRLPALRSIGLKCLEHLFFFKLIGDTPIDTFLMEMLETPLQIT

CC(=O)NC(C)c1nc(-c2ccc(Oc3ccc(OCc4ccccc4)cc3)cc2)no1 (stereo unspecified)
Emax [1]: 16 to 35%
Activity [2]: inactive
EC50 [3]: 0.033 µM
Activity [4]: inactive
Emax [5]: 5 to 10%
Activity [6]: inactive
